# Columns and labels:
# PARG [1] = experiment: PARG in vitro assay under the original salicylanilide conditions; details: 10 μM; phosphate buffer, 5 min; both in the absence and presence of 0.1% Triton X-100
# [2] = not told; cited from earlier work
# [3] = target: endogenous PARG in whole cell lysate generated from mouse embryonic fibroblasts (MEFs) (Mus musculus, UniProt O88622); experiment: Processing of 32P-PAR by MEF whole cell lysate; format: biochemical; details: 25 μM, MEF lysate 1.5 μg
# PARG [4] = experiment: PARG in vitro assay; details: for PARG inhibition: 0.5 h incubation with 32P-PAR
# PARG [5] = details: cited from earlier work
# ß-lactamase = experiment: ß-Lactamase assay
# Chain of endogenous PARG in whole cell lysate generated from mouse embryonic fibroblasts (MEFs) (O88622 whole entry): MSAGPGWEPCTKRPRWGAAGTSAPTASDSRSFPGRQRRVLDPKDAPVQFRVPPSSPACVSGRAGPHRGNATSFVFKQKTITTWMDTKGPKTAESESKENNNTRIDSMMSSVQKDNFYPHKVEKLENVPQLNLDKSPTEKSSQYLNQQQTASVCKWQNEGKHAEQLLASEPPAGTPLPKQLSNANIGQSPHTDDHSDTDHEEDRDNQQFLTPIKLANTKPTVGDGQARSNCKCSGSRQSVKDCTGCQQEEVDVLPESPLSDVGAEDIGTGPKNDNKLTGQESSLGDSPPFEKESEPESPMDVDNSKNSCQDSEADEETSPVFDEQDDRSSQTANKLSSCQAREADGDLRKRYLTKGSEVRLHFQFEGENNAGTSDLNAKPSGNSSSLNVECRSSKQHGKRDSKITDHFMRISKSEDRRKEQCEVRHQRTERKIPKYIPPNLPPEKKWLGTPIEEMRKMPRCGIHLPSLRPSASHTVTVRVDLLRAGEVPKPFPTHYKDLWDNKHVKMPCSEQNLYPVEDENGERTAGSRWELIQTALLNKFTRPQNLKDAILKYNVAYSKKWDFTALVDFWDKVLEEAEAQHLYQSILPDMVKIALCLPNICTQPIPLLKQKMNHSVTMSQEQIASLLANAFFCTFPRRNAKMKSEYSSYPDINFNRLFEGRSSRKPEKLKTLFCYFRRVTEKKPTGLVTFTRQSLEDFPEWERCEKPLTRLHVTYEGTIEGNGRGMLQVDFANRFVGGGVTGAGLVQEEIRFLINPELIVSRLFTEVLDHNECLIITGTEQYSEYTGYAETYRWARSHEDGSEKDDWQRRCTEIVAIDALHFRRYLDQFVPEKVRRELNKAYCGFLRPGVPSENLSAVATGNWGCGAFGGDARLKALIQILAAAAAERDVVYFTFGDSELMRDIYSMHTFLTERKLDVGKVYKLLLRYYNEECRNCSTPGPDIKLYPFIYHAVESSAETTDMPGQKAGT
compound,measurement,setting,value
"Nc1ncnc2c1ncn2[C@@H]1O[C@H](CO[P@](=O)(O)O[P@@](=O)(O)OC[C@H]2NC[C@H](O)[C@@H]2O)[C@@H](O)[C@H]1O [ADP-HPD, Adenosine diphosphate (hydroxymethyl)pyrrolidinediol]",PARG inhibition,PARG [1],complete inhibition
same,cell permeability,[2],lack of cell permeability
same,intact PAR at 60 min,[3],approx. 80%
same,PARG inhibition,PARG [4]; 0.5 μM,partially inhibited
same,PARG inhibition,PARG [4]; 25 μM,67%
same,PARG inhibition after prolonged incubation,"PARG [4]; 0.5 – 25 μM, 2 h incubation with 32P-PAR",only minimal PARG inhibition
same,partial inhibition of PARG,PARG [5],partial inhibition of PARG
same,IC50,"PARG [5]; read-out: IC50 for PARG inhibition, literature value",0.12 µM
Nc1c(/N=N/c2ccc(-c3ccc(/N=N/c4cc(S(=O)(=O)O)c5ccccc5c4N)cc3)cc2)cc(S(=O)(=O)O)c2ccccc12 [Congo Red],inhibition of ß-lactamase,"ß-lactamase; 50 μM, absence of detergent",100%
same,inhibition of ß-lactamase in the presence of detergent,"ß-lactamase; 5-50 μM, 0.1% Triton X-100",< 10%
same,effect of detergent on inhibition of PARG,"PARG [4]; compound 50 μM, presence or absence of 0.1% Triton X-100, 2 h",complete loss of inhibition

# Source: paper PMC3306470 (ACS chemical biology, 2012)
